Test [1] in a line: Substrate activity at CPR in human L02 cells assessed as CPR-mediated one-electron reduction of compound by measuring cell growth inhibition treated for 24 hrs measured after 72 hrs by MTT assay. For orientation: Tetrazolium dyes change colour on reduction, which living cells bring about.
Test [2] is described as follows: Substrate activity at NQO1 in human A549 cells assessed as NQO1-mediated two-electron reduction of compound by measuring cell growth inhibition treated for 24 hrs measured after 72 hrs by MTT assay.
A short description of test [3]: Substrate activity at NQO1 in human H522 cells assessed as NQO1-mediated two-electron reduction of compound by measuring cell growth inhibition treated for 24 hrs measured after 72 hrs by MTT assay.
Test [4] in a line: Substrate activity at NQO1 in human MCF7 cells assessed as NQO1-mediated two-electron reduction of compound by measuring cell growth inhibition treated for 24 hrs measured after 72 hrs by MTT assay.
Test [5] in a line: Substrate activity at NQO1 in human H1299 cells assessed as NQO1-mediated two-electron reduction of compound by measuring cell growth inhibition treated for 24 hrs measured after 72 hrs by MTT assay.
A short description of test [6]: Substrate activity at NQO1 in human H1650 cells assessed as NQO1-mediated two-electron reduction of compound by measuring cell growth inhibition treated for 24 hrs measured after 72 hrs by MTT assay.
The nature of test [7]: Substrate activity at NQO1 in human HepG2 cells assessed as NQO1-mediated two-electron reduction of compound by measuring cell growth inhibition treated for 24 hrs measured after 72 hrs by MTT assay.
A short description of test [8]: Substrate activity at NQO1 in human HCT116 cells assessed as NQO1-mediated two-electron reduction of compound by measuring cell growth inhibition treated for 24 hrs measured after 72 hrs by MTT assay.

The term IC50 denotes the concentration at which inhibition is half-maximal. For the compound `Cc1ccc2c(c1)-c1occ(C)c1C(=O)C2=O`, the IC50 in test [1] was determined as 6.3 µM; in test [2] it was 4.1 µM.

As for `Cc1coc2c1C(=O)C(=O)c1c(C)ccc(C)c1-2`, the results for the IC50 in test [1] and in test [2] were 17 µM and 2.9 µM, respectively.

With `Cc1cc2c(cc1C)-c1occ(C)c1C(=O)C2=O`, the IC50 in test [2] is 3.3 µM; in test [3], 4.8 µM; in test [4], 2.4 µM; in test [5], 4.9 µM; in test [6], 9.3 µM; in test [7] it was 2.5 µM. For the same compound, the IC50 in test [8] amounted to 4.4 µM.

For `Cc1ccc2c(c1)C(=O)C(=O)c1c(C)coc1-2`, the IC50 turned out to be 22 µM in test [1] and 8.5 µM in test [2].

Turning to `Cc1cc2c(cc1C)-c1occc1C(=O)C2=O`, in test [2], the IC50 turned out to be 3.1 µM.

Consider `CCc1coc2c1C(=O)C(=O)c1cc(C)ccc1-2`, for which the IC50 in test [1] came to 25 µM; in test [2] it was 3.1 µM.

For the compound `COc1ccc2c(c1)C(=O)C(=O)C1=C2OC(C)C1(C)C` (centres undefined), the IC50 in test [1] was found to be 30 µM.

`COc1ccc2c(c1)C1=C(C(=O)C2=O)C(C)(C)C(C)O1` (centres undefined): the IC50 in test [2] came to 5.8 µM.

As to `COc1cccc2c1C1=C(C(=O)C2=O)C(C)(C)C(C)O1` (centres undefined), the IC50 in test [1] is 19 µM.

The values are drawn from BindingDB's records for doi:10.1016/j.ejmech.2017.02.004 (China Pharmaceutical University, 2017).
